From patent publication EP0497921B1, “METHOD FOR INHIBITING ENZYMATIC SYNTHESIS OF NUCLEIC ACIDS USING ISOPSORALENS” (ISAACS, Stephen T., priority 1989, dated 1991)
Marks after values point to notes of the source that are not given here.

Tests used:
[1] = Solubility of photoreactive compounds in 1 X TE (optical density of filtrate); assay type: physicochemical; settings: 1 x te
Procedure: The solubilities of AMIP, AMDMIP, DMIP, MIP and isopsoralen (IP) were determined experimentally according to the scheme set forth in Figure 5. To perform the solubility measurement, it was first necessary to establish known optical densities for a 1 µg/ml solution of each compound. These were determined by preparing either ethanolic or aqueous stocks of each compound at known concentrations in 1 x TE, then measuring the optical density of each solution. From this information, the absorption of a 1 µg/ml solution was computed. Alternatively, the extinction coefficient may be thus determined and used in the same fashion. In this manner, the following absorption data was collected:
Following this step, undissolved compound was removed by filtration using a 0.2 u nylon-66 syringe filter (Arco LC13; Gelman). The concentration of the remaining soluble compound was then determined by measuring the optical density of the filtrate and computing the solubility from the known optical density of a 1 µg/ml solution of that compound. The solubility of the compounds was thus determined to be as follows: […]

[2] = test system: calf thymus DNA; experiment: Binding of photoproduct to nucleic acid in the dark (DNA-associated tritium counts); settings: no device, no irradiation
Procedure: The nucleic acid binding properties of photoproduct were investigated with calf thymus DNA. 200 µg/ml of ^3H-AMDMIP (1 x 10^5 CPM/ml) in Taq buffer was irradiated at room temperature with either the CE-III device or the PTI device. This irradiation was performed for 15 minutes in the absence of nucleic acid. Following the irradiations, 200 µl of the irradiated solution was mixed with 200 µl of 1000 µg/ml DNA solution in Taq buffer. Several identical samples were prepared in this manner. one set of samples was allowed to react with the DNA for 2 hours at room temperature. The other set of samples was subjected to 30 cycles of heating and cooling by placing the samples in a thermal cycler [Perkin-Elmer Cetus DNA Thermal Cycler (Part No. N8010150); each cycle involved 93°C for 30 seconds, 55°C for 30 seconds and 72°C for 1 minute]. When the DNA reactions were complete, all samples were analyzed for DNA-associated tritium counts (CPM) by following the flow chart outlined in FIgure 17.
For calculation purposes, these adducts are reported as if they represented monomers of AMDMIP. Regardless of the accuracy of this approximation, the process of irradiating ^3H-AMDMIP clearly results in a tritiated product which associates (i.e. binds) with DNA in the absence of subsequent activating wavelengths of electromagnetic radiation. […]

[3] = test system: HIV 115-mer; experiment: Effect of unirradiated isopsoralen on PCR amplification; assay type: biochemical; settings: for Counts (CPM): unirradiated, 30 cycles, 42200 without AMDMIP
Procedure: To systematically evaluate the effect of the presence of increasing concentrations of isopsoralen on PCR, AMDMIP (0, 100, 200, 400 µg/ml) was added to 10^7 copies of HIV 115-mer as template. PCR was then carried out for 30 cycles in the presence of α-^32P-dCTP. The PCR product was run on denaturing polyacrylamide gel and autoradiographed. The bands were thereafter cut and counted.

[4] = test system: DNA; settings: DNA base pair:isopsoralen ratio of 24.3 to 1; 13.1 µg/ml; cited from earlier work
[5] = test system: DNA polymerase I from E. coli. B; settings: Piette and Hearst 1983; nick-translating a double-stranded template; cited from earlier work

With “4'-Aminomethyl-4,5'-dimethylisopsoralen [AMDMIP]” the “Solubility in 1 X TE” value [1] was > 22,700 * µg/ml, the “ADDUCTS PER” value ([2]; dark reaction Room Temp. (2 hours)) was 1.1 and the “ADDUCTS PER” value ([2]; dark reaction Thermally Cycled (30 cycles)) was 0.9. For the same molecule, the “concentrations compatible with the PCR system” value ([3]; HIV 115-mer system) was “up to 400 µg/ml”, the “Counts (CPM)” value ([3]; [AMDMIP] 100 µg/ml) was 77200 CPM and the “Counts (CPM)” value ([3]; [AMDMIP] 200 µg/ml) was 77500 CPM. For the same molecule, the “Counts (CPM)” value ([3]; [AMDMIP] 400 µg/ml) was 69400 CPM and the “1 photobound AMDMIP per n DNA base pairs” value [4] was 151 DNA base pairs.

In the case of 5-Aminomethylisopsoralen [AMIP], the “Solubility in 1 X TE” value [1] is reported as 21,000 µg/ml.

For `Cc1cc2occc2c2oc(=O)ccc12` [MIP, 5-Methylisopsoralen], the “inhibition of E. Coli polymerase I by covalently bound monoadducts” value [5] is listed as “not inhibited”.
